From US20240270821A1, “GIP/GLP1/GCG TRI-RECEPTOR AGONISTS AND USES THEREOF” (priority 2023, published 2024)
Starred links: 1 amine or outer side, 2 acyl side, 3 side chain; linkers in the order of their positions; H or OH if unused. Non-standard residues stand in square brackets, D forms with d. Residues, ends and D or L forms follow the SMILES beside them. Groups on a side chain read outwards from the residue. *: point of attachment. C18 diacid = O=C(O)CCCCCCCCCCCCCCCCC(=O)*; αMePhe(2-F) = C[C@](N)(Cc1ccccc1F)C(=O)O; γGlu = O=C(O)[C@H](CCC(=O)[*:2])N[*:1]; αMeY = C[C@](N)(Cc1ccc(O)cc1)C(=O)O; 4Pal = N[C@@H](Cc1ccncc1)C(=O)O; αMeL = CC(C)C[C@](C)(N)C(=O)O; αMeS = C[C@](N)(CO)C(=O)O; Orn = NCCC[C@H](N)C(=O)O; Aib = CC(C)(N)C(=O)O

Key:
Format in all cases: cell-based
hGLP-1R [1] = molecular target: T1, hGLP-1R (Homo sapiens, UniProt P43220); experiment: Functional cAMP activation in the presence of 0.1% casein (no HSA); details: read-out: Relative cAMP EC50, hGLP-1R;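 further: intracellular cAMP rise after 30 min at 37 °C read by HTRF, normalized between buffer only (0%) and maximal control ligand (100%), four-parameter variable-slope fit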
hGcgR = hGcgR (Homo sapiens, UniProt P47871); experiment: as above; details: read-out: Relative cAMP EC50, hGcgR;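 further: intracellular cAMP rise after 30 min at 37 °C, read by HTRF against a cAMP standard curve, scaled from buffer only (0%) to maximal control ligand response (100%)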
hGIPR [2] = molecular target: T2, hGIPR (Homo sapiens, UniProt P48546); experiment: as above; details: read-out: Relative cAMP EC50, hGIPR;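 further: intracellular cAMP rise after 30 min at 37 °C read by HTRF against a standard curve, scaled between buffer alone (0%) and top control ligand concentration (100%), four-parameter fit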
T2 sequence (P48546 22-466): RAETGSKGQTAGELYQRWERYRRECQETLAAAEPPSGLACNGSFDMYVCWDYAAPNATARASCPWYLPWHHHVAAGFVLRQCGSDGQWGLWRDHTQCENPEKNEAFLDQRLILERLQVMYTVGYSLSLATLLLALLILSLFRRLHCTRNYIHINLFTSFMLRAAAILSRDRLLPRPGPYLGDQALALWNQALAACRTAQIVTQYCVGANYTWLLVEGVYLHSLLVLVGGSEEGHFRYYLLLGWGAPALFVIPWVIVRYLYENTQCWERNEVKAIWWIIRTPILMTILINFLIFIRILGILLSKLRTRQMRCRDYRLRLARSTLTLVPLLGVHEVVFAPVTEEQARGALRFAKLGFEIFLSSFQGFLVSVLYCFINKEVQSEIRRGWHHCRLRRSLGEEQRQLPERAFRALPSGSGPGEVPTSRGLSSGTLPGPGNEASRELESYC

hGLP-1R [3] = molecular target: T1, hGLP-1R; experiment: Functional cAMP activity in the presence of 1% HSA; details: read-out: cAMP Rel EC50, hGLP-1R
human GcgR = human GcgR (Homo sapiens, UniProt P47871); experiment: Functional cAMP activity in the presence of 1% HSA; details: read-out: cAMP Rel EC50, hGcgR
hGIPR [4] = molecular target: T2, hGIPR; experiment: Functional cAMP activity in the presence of 1% HSA; details: read-out: cAMP Rel EC50, hGIPR

T1 sequence (P43220 24-463): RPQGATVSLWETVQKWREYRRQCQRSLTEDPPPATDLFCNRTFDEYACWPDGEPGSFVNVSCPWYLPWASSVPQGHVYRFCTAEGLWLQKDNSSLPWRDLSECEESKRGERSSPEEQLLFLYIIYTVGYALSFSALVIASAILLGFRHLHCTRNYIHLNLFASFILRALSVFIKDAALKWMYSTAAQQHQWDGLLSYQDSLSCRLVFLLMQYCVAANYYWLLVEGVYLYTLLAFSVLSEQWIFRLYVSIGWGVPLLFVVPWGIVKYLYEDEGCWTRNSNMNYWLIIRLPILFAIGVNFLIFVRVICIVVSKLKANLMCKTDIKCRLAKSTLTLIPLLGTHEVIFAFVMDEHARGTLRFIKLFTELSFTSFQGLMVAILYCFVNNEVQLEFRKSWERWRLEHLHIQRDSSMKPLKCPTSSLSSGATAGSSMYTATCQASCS
human GcgR, sequence (P47871 26-477): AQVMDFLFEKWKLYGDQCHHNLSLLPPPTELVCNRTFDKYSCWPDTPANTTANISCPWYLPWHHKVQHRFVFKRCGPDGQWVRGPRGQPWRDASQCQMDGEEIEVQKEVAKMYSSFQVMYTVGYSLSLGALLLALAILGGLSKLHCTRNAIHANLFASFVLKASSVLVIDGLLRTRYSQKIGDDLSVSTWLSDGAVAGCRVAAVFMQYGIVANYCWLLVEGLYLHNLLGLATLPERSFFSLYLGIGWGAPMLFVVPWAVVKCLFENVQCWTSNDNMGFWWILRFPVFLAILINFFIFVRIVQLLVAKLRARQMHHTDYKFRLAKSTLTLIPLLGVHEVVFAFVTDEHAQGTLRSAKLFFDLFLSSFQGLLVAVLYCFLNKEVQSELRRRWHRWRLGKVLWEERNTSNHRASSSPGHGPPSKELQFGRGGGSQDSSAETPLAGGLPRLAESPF
hGcgR, sequence (P47871 26-477): as above

SMILES	EC50 (hGLP-1R [1])	EC50 (hGcgR)	EC50 (hGIPR [2])	EC50 (hGLP-1R [3])	EC50 (human GcgR)	EC50 (hGIPR [4])
CC[C@H](C)[C@H](NC(=O)[C@H](CC(C)C)NC(=O)[C@H](Cc1ccc(O)cc1)NC(=O)[C@@H](CCC(=O)O)NC(=O)[C@@H](NC(=O)[C@H](Cc1ccccc1)NC(=O)[C@H](CC(N)=O)NC(=O)C(C)(C)NC(=O)[C@H](CCC(N)=O)NC(=O)[C@H](C)NC(=O)[C@H](CCCCNC(=O)CC[C@H](NC(=O)CC[C@H](NC(=O)CCCCCCCCCCCCCCCCC(=O)O)C(=O)O)C(=O)O)NC(=O)[C@H](CCCN)NC(=O)[C@H](CC(=O)O)NC(=O)[C@H](CC(C)C)NC(=O)[C@](C)(CC(C)C)NC(=O)[C@@H](NC(=O)[C@](C)(CO)NC(=O)[C@H](Cc1ccncc1)NC(=O)[C@H](CC(=O)O)NC(=O)[C@H](CO)NC(=O)[C@@H](NC(=O)[C@](C)(Cc1ccccc1F)NC(=O)[C@@H](NC(=O)CNC(=O)[C@H](CCC(N)=O)NC(=O)C(C)(C)NC(=O)[C@@H](N)Cc1ccc(O)cc1)[C@@H](C)O)[C@@H](C)O)[C@@H](C)CC)[C@@H](C)CC)C(=O)N[C@@H](CCC(=O)O)C(=O)NCC(=O)NCC(=O)N1CCC[C@H]1C(=O)N[C@@H](CO)C(=O)N[C@@H](CO)C(=O)NCC(=O)N[C@@H](CCC(=O)O)C(=O)N1CCC[C@H]1C(=O)N1CCC[C@H]1C(=O)N1CCC[C@H]1C(=O)N[C@@H](CCC(=O)O)C(N)=O [Example 449] (H-Y[Aib]QGT[αMePhe(2-F)]TSD[4Pal][αMeS]I[αMeL]LD[Orn]K([γGlu-γGlu-C18 diacid])AQ[Aib]NFI[dE]YLIEGGPSSGEPPPE-NH2)	0.568 nM	11.5 nM	0.0205 nM	18.9 nM	424 nM	1.66 nM
CC[C@H](C)[C@H](NC(=O)[C@H](Cc1ccccc1)NC(=O)[C@H](CC(N)=O)NC(=O)C(C)(C)NC(=O)[C@H](CCC(N)=O)NC(=O)[C@H](C)NC(=O)[C@H](CCCCNC(=O)CC[C@H](NC(=O)CC[C@H](NC(=O)CCCCCCCCCCCCCCCCC(=O)O)C(=O)O)C(=O)O)NC(=O)[C@H](CCCN)NC(=O)[C@H](CC(=O)O)NC(=O)[C@H](CC(C)C)NC(=O)[C@](C)(CC(C)C)NC(=O)[C@@H](NC(=O)[C@](C)(CO)NC(=O)[C@H](Cc1ccncc1)NC(=O)[C@H](CC(=O)O)NC(=O)[C@H](CO)NC(=O)[C@@H](NC(=O)[C@](C)(Cc1ccccc1F)NC(=O)[C@@H](NC(=O)CNC(=O)[C@H](CCC(N)=O)NC(=O)C(C)(C)NC(=O)[C@@H](N)Cc1ccc(O)cc1)[C@@H](C)O)[C@@H](C)O)[C@@H](C)CC)C(=O)N[C@H](CCC(=O)O)C(=O)N[C@@](C)(Cc1ccc(O)cc1)C(=O)N[C@@H](CC(C)C)C(=O)N[C@@H](CCC(N)=O)C(=O)N[C@@H](CCC(=O)O)C(=O)NCC(=O)NCC(=O)N1CCC[C@H]1C(=O)N[C@@H](CO)C(=O)N[C@@H](CO)C(=O)NCC(=O)N[C@@H](CCC(=O)O)C(=O)N1CCC[C@H]1C(=O)N1CCC[C@H]1C(=O)N1CCC[C@H]1C(=O)N[C@@H](CCC(=O)O)C(N)=O [Example 450] (H-Y[Aib]QGT[αMePhe(2-F)]TSD[4Pal][αMeS]I[αMeL]LD[Orn]K([γGlu-γGlu-C18 diacid])AQ[Aib]NFI[dE][αMeY]LQEGGPSSGEPPPE-NH2)	0.43 nM	4.84 nM	0.0448 nM	18.4 nM	553 nM	3.75 nM
